Experimental findings from PubChem BioAssay (NCI) are described below.

Values joined by “and” are separate entries in the source; they are usually repeats but may differ in a detail not shown here. Equal values may be shown once.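 Cells were grown in 96-well plates and exposed to each compound for 48 hours at five concentrations; endpoints were interpolated linearly between bracketing concentrations, or set to the highest concentration if not reached. Here, GI50 denotes the concentration required for 50% inhibition of growth. TGI is the concentration that stops growth completely.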

Test systems include SF-268 CNS; SN12C renal; SF-539 CNS; MALME-3M melanoma; HCC-2998 colon; NCI-H23 lung; UACC-62 melanoma; SW-620 colon; NCI-H460 lung; SR leukemia.
Experiment in all cases: growth of human tumour cells (NCI), 48 h

As for `O=S1Nc2c(Cl)cc(Cl)c3c(Cl)cc(Cl)c(c23)N1`, the TGI was over 100 µM with SF-268 CNS; over 100 µM with SN12C renal; over 100 µM with SF-539 CNS; over 100 µM with MALME-3M melanoma; 99.8 µM in the test with HCC-2998 colon; over 100 µM in the test on NCI-H23 lung. The TGI in the test on UACC-62 melanoma is 66 µM; in the test on SW-620 colon, over 100 µM.
For the compound `CC1=NN(C(=O)c2ccc([N+](=O)[O-])cc2)C(=O)C1N=Nc1ccccc1C(=O)O` (centres undefined), the TGI in the test with SF-268 CNS, with SN12C renal, in the test with SF-539 CNS, in the test on NCI-H460 lung, in the test with MALME-3M melanoma and in the test with HCC-2998 colon was over 100 µM throughout. In addition, the TGI in the test on NCI-H23 lung, in the test on UACC-62 melanoma and with SW-620 colon was over 100 µM in each case.
As to `Cc1c(C(=O)/C=C/c2ccccc2O)c(=O)n(-c2ccccc2)n1C`, the TGI in the test with SF-268 CNS was over 100 µM; with SN12C renal, 52.6 µM; in the test on SF-539 CNS it was 55.5 µM; in the test with NCI-H460 lung, 53.3 µM; in the test on MALME-3M melanoma it was 70.7 µM; with HCC-2998 colon, 29.5 µM. The TGI in the test with UACC-62 melanoma is over 100 µM; in the test on SW-620 colon it was 35.5 µM.
With `COC(=O)Cc1ccc(Oc2cnc3cc(F)c(F)cc3n2)cc1`, the GI50 was over 100 µM with SF-268 CNS; over 100 µM in the test with SN12C renal; over 100 µM in the test on SF-539 CNS; over 100 µM in the test on NCI-H460 lung; over 100 µM in the test on MALME-3M melanoma; 68.4 µM in the test on NCI-H23 lung. Further, the GI50 with UACC-62 melanoma and with SW-620 colon was over 100 µM each time. The TGI in the test on SF-268 CNS, in the test on SN12C renal, with SF-539 CNS, in the test on NCI-H460 lung, in the test with MALME-3M melanoma and in the test with NCI-H23 lung was over 100 µM throughout. Besides, the TGI in the test on UACC-62 melanoma and in the test with SW-620 colon was over 100 µM throughout.
For the compound `CC(C)(C)C1CCC2c3c([nH]c4ccccc34)C3C(=O)N(c4ccccc4)C(=O)C3C2C1` (centres undefined), the TGI with SF-268 CNS came out at 52.5 µM; in the test on SN12C renal, 17.4 µM; in the test with SF-539 CNS, 23.5 µM; in the test on NCI-H460 lung it was 12.5 µM; with MALME-3M melanoma, 7.31 µM; in the test on HCC-2998 colon, 53.5 µM. For the same compound, the TGI with NCI-H23 lung amounted to 40.1 µM; with UACC-62 melanoma it was 56.7 µM; in the test with SW-620 colon it was 41 µM.
Take `CC(=O)[CH-]C(=O)c1ccccc1.CC(=O)[CH-]C(=O)c1ccccc1.CCOCC[O-].CCOCC[O-].[Ti+4]`: the GI50 was 13.8 µM in the test on SF-268 CNS; 20.6 µM with SN12C renal; 19.1 µM in the test with SF-539 CNS; 18.8 µM with NCI-H460 lung; 16.9 µM in the test on MALME-3M melanoma; 18.4 µM in the test on HCC-2998 colon. The GI50 with UACC-62 melanoma was 15.5 µM; in the test with SW-620 colon it was 28.3 µM. The TGI in the test with SF-268 CNS amounted to 34.8 µM; in the test with SN12C renal, 73.4 µM; in the test on SF-539 CNS, 50.4 µM; in the test with NCI-H460 lung it was 43.4 µM; in the test on MALME-3M melanoma it was 43.7 µM; with HCC-2998 colon it was 43.5 µM. In addition, the TGI in the test with UACC-62 melanoma is 37.8 µM; with SW-620 colon it was over 100 µM.
In the case of `COc1cccc(/C=C/C(=O)c2ccc(Cl)cc2Cl)c1`, the GI50 in the test with SF-268 CNS was 11.2 µM; in the test with SN12C renal it was 8.72 µM; in the test on SF-539 CNS, 12.2 µM; in the test with NCI-H460 lung it was 11.9 µM; in the test with NCI-H23 lung, 9.72 µM; in the test with UACC-62 melanoma, 8.06 µM. Besides, the results for the GI50 with SR leukemia and with SW-620 colon were 0.833 µM and 1.82 µM, respectively. The TGI in the test on SF-268 CNS is 27.4 µM; in the test with SN12C renal it was 16.5 µM; with SF-539 CNS, 23 µM; in the test with NCI-H460 lung, 40.2 µM; in the test on NCI-H23 lung, 28.7 µM; with UACC-62 melanoma, 15.5 µM. In addition, the TGI in the test with SR leukemia is over 50 µM; with SW-620 colon, 7.62 µM.
In the case of `CO[C@H](C(=O)[C@@H](O)[C@@H](C)O)[C@@H]1Cc2cc3cc(OC4CC(OC5CC(O)C(O)C(C)O5)C(O)C(C)O4)c(C)c(O)c3c(O)c2C(=O)[C@H]1OC1CC(OC2CC(OC3CC(C)(O)C(O)C(C)O3)C(O)C(C)O2)C(O)C(C)O1` (some centres undefined), the GI50 in the test with SF-268 CNS was 0.0242 µg/mL and 0.0192 µg/mL; with SN12C renal, 0.0272 µg/mL and 0.011 µg/mL; in the test with SF-539 CNS, 0.0233 µg/mL and 0.0157 µg/mL; in the test on NCI-H460 lung, 0.0183 µg/mL and 0.015 µg/mL; with MALME-3M melanoma, 0.0146 µg/mL and 0.0159 µg/mL; with HCC-2998 colon, 0.0395 µg/mL and 0.0243 µg/mL. Also, the GI50 with NCI-H23 lung was 0.0235 µg/mL and 0.0192 µg/mL; with UACC-62 melanoma it was 0.011 µg/mL; with SW-620 colon, 0.0264 µg/mL and 0.0232 µg/mL.
On to `C/C=C/CC(C)[C@@H](O)[C@H](NC)C(=O)O` (some centres undefined), for which the TGI in the test on SF-268 CNS, in the test on SN12C renal, with SF-539 CNS, in the test on NCI-H460 lung, in the test with MALME-3M melanoma and with HCC-2998 colon was over 100 µM each time. Further, the TGI with NCI-H23 lung, in the test on UACC-62 melanoma and with SW-620 colon was over 100 µM in each case.
Regarding `CCOc1cccc2ccc[n+](CC)c12`, the TGI is 77.9 µM in the test on SF-268 CNS; over 100 µM with SN12C renal; over 100 µM in the test on SF-539 CNS; over 100 µM with NCI-H460 lung; over 100 µM in the test on MALME-3M melanoma; over 100 µM in the test on HCC-2998 colon. Also, the TGI in the test with NCI-H23 lung, in the test with UACC-62 melanoma and in the test on SW-620 colon was over 100 µM throughout.
For `N#CC1=C(N)NC(N2CCOCC2)=NC12Nc1ccccc1N2`, the GI50 with SF-268 CNS is 21.6 µM; in the test on SN12C renal it was 30.1 µM; in the test on SF-539 CNS it was 36.3 µM; with MALME-3M melanoma, 30.5 µM; with NCI-H23 lung, 21.9 µM; in the test on UACC-62 melanoma it was 32.2 µM. Moreover, the GI50 was 28.8 µM with SR leukemia and 26.7 µM with SW-620 colon. The TGI in the test with SF-268 CNS is 51.1 µM; in the test on SN12C renal it was over 100 µM; in the test with SF-539 CNS, over 100 µM; with MALME-3M melanoma, over 100 µM; in the test with NCI-H23 lung, over 100 µM; in the test on UACC-62 melanoma, 82.1 µM. Besides, the TGI with SR leukemia and in the test on SW-620 colon was over 100 µM throughout.
As for `Nc1ccn(C2OC(COC(=O)C34CC5CC(CC(C5)C3)C4)C(O)C2O)c(=O)n1` (centres undefined), the TGI with SF-268 CNS was over 100 µM; with SN12C renal, over 100 µM; in the test on SF-539 CNS, over 100 µM; in the test on NCI-H460 lung, over 40.8 µM; in the test with MALME-3M melanoma, over 100 µM; in the test on HCC-2998 colon, over 100 µM. Also, the TGI with NCI-H23 lung, in the test with UACC-62 melanoma and in the test with SW-620 colon was over 100 µM throughout.
